# Data: PubChem BioAssay (NCI)
#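 Each compound was tested at five concentrations against cells in 96-well plates for 48 hours. GI50 = concentration required for 50% inhibition of growth. At the TGI there is no net growth.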
# What was measured:
# Assay in all cases: NCI tumour cell line growth inhibition, 48 h
# A498 renal = test system: A498 renal
# CCRF-CEM leukemia = test system: CCRF-CEM leukemia
# HT29 colon = test system: HT29 colon
# KM12 colon = test system: KM12 colon
# NCI-H460 lung = test system: NCI-H460 lung
# OVCAR-8 ovarian = test system: OVCAR-8 ovarian
# UACC-257 melanoma = test system: UACC-257 melanoma
# UO-31 renal = test system: UO-31 renal
Structure (SMILES),GI50 (A498 renal) [µM],TGI (A498 renal) [µM],GI50 (CCRF-CEM leukemia) [µM],TGI (CCRF-CEM leukemia) [µM],GI50 (HT29 colon) [µM],TGI (HT29 colon) [µM],GI50 (KM12 colon) [µM],TGI (KM12 colon) [µM],GI50 (NCI-H460 lung) [µM],TGI (NCI-H460 lung) [µM],GI50 (OVCAR-8 ovarian) [µM],TGI (OVCAR-8 ovarian) [µM],GI50 (UACC-257 melanoma) [µM],TGI (UACC-257 melanoma) [µM],GI50 (UO-31 renal) [µM],TGI (UO-31 renal) [µM]
Cc1cccc(NC(=O)c2sc3nc4c(cc3c2N)CN(Cc2ccccc2)CC4)c1C,0.397,> 50,0.195,> 50,0.147,1.6,0.193,> 50,0.196,> 50,0.297,> 50,> 50,> 50,0.917,> 50
Cc1nc2ccccc2c(/C=C/c2ccc(Br)cc2)c1C(=O)/C=C/c1ccccc1,1.75,3.28,1.48,> 100,1.48,6.58,1.95,4.37,–,–,1.57,3.48,1.68,3.22,1.21,2.44
c1ccc2c3c([nH]c2c1)C1CCCN1CC3 (configuration not stated),–,> 10,–,> 10,–,> 10,–,> 10,–,> 10,–,> 10,–,> 10,–,> 10
COc1ccc2c(c1)OC1=C(C(=O)OC1)C2c1cc(OC)c2c(c1)OCO2 (configuration not stated),0.0205,0.0923,0.0378,> 100,0.0328,> 100,0.0304,0.416,0.0374,> 100,0.0516,> 100,> 46.1,> 100,0.689,> 100
CC1=CC(=O)C(O)C2(C)C1CC(O)C13COC4(C)C(OC(=O)C41)C(O)C23 (configuration not stated),18,54.4,5.79,> 100,9.02,> 100,7.41,33.6,5.2,62.7,5.57,25.2,9.57,38.8,10.7,42.7
CCN(Cc1ccc(Cl)s1)c1ccc(CO)c(Cl)c1,0.0495,0.189,13.1,> 81.1,3.01,16.4,14.7,31.6,0.202,10,5.75,27.6,0.0898,0.298,1.12,20
CCN1C(=O)N(CC)C2C1NN=c1s/c(=C\c3ccccc3Br)c(=O)n12 (configuration not stated),< 0.0156,0.0598,0.0354,> 100,0.0348,14,0.0236,1.5,0.0337,4.14,0.0424,> 73.5,9.29,33.3,0.205,34.4
